Measurements from US9561231B2 (AbbVie Inc., priority 2012, dated 2017).

How the values were obtained:
[1] = tested on: H1299; assay: Proliferation panel assay: H1299; type: cell-based; details: Homo sapiens, NCI-H1299, 120 h; H1299 (NSCLC); 5 days, Cell Titer Glo; read-out: Cellular Proliferation EC50
[2] = tested on: MDAMB453; assay: Proliferation panel assay: MDAMB453; type: cell-based; details: Homo sapiens, MDA-MB-453, 120 h; MDAMB453 (Breast); 5 days, Cell Titer Glo; read-out: Cellular Proliferation EC50
[3] = tested on: PC3M; assay: Proliferation panel assay: PC3M; type: cell-based; details: Homo sapiens, PC-3M, 120 h; PC3M (Prostate); 5 days, Cell Titer Glo; read-out: Cellular Proliferation EC50
[4] = tested on: breast cancer cell line MX-1; assay: MX-1 cell line proliferation assay (3-day); type: cell-based; details: Homo sapiens, MX1; MX-1 cells, 72 h incubation, Cell Titer Glo; read-out: Cellular proliferation: EC50
Outline: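 MX-1 cells in RPMI/10% FBS, plated 5000/well overnight, then exposed to compound at final 3 to 0.0001 μM (3-fold series) for 3 days at 37° C. Cell Titer Glo luminescence normalized to DMSO-treated cells; EC50 from sigmoidal curve fit.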

[5] = tested on: HepG2; assay: Proliferation panel assay: HepG2; type: cell-based; details: Homo sapiens, 120 h; HepG2 (Hepatocellular); 5 days, Cell Titer Glo; read-out: Cellular Proliferation EC50
[6] = tested on: RPMI-8226; assay: Proliferation panel assay: RPMI-8226; type: cell-based; details: Homo sapiens, 120 h; RPMI-8226 (Multiple Myeloma); 5 days, Cell Titer Glo; read-out: Cellular Proliferation EC50
[7] = tested on: LPS induced IL-6 production; assay: LPS (lipopolysaccharide) induced IL-6 production mouse assay; details: 30 mg/kg oral, 1 h before LPS 2.5 mg/kg i.p.; serum IL-6 2 h after LPS; p<0.05

| EC50 [1] | EC50 [2] | EC50 [3] | EC50 [4] | EC50 [5] | EC50 [6] | SMILES | Inhibition of LPS induced IL-6 production, % inhibition [7] |
| --- | --- | --- | --- | --- | --- | --- | --- |
| 750 nM | 320 nM | 1450 nM | 208 nM | 486 nM | 279 nM | Cn1cc(-c2cc(NS(C)(=O)=O)ccc2Oc2ccccc2)ccc1=O [Example 224, N-[3-(1-methyl-6-oxo-1,6-dihydropyridin-3-yl)-4-phenoxyphenyl]methanesulfonamide] |  |
| 740 nM | 340 nM | 1400 nM | 387 nM | 510 nM | 305 nM | Cc1cc(-c2cc(NS(C)(=O)=O)ccc2Oc2ccccc2)c[nH]c1=O [Example 261, N-[3-(5-methyl-6-oxo-1,6-dihydropyridin-3-yl)-4-phenoxyphenyl]methanesulfonamide] | 42.2 @ 30 mg/kg % |
